The values below come from BindingDB's records for doi:10.1016/j.jmb.2005.09.095 (Georgia State University, 2005).

SMILES strings stand for the structures. Starred links: 1 amine or outer side, 2 acyl side, 3 side chain; linkers in the order of their positions; H or OH if unused. Non-standard residues stand in square brackets, D forms with d. Residues, ends and D or L forms follow the SMILES beside them. Groups on a side chain read outwards from the residue. N(2S-amino-4-Me-pentyl)Phe = CC(C)C[C@@H](CN([C@@H](Cc1ccccc1)C(=O)[*:2])[*:1])N[*:3]; Nle = CCCC[C@H](N)C(=O)O

Holding throughout (experiment): Protease Inhibition Assay
Conditions in all cases: pH 5; 22 °C

The target in assay [1] is T1, Dimer of Gag-Pol polyprotein [501-599,Q508K,L534I,L564I,C568A,C596A,G574S] (Human immunodeficiency virus 1, UniProt P03367, C568A/C596A/G574S/L534I/L564I/Q508K).
T1 construct: 501-599
From the text:
(§1) The Ki values were obtained from the IC50 values estimated from an inhibitor dose-response curve with the spectroscopic assay and the chromogenic substrate.

Assay [2] deals with T2, Dimer of Gag-Pol polyprotein [501-599,Q508K,L534I,L564I,C568A,C596A,I551V] (Human immunodeficiency virus 1, UniProt P03367, C568A/C596A/I551V/L534I/L564I/Q508K).
T2 construct: 501-599
Source text: as §1

The target of assay [3] is T3, Dimer of Gag-Pol polyprotein [501-599,Q508K,L534I,L564I,C568A,C596A,L525I] (Human immunodeficiency virus 1, UniProt P03367, C568A/C596A/L525I/L534I/L564I/Q508K).
T3 construct: 501-599
Source text: as §1

The target of assay [4] is T4, Dimer of Gag-Pol polyprotein [501-599,Q508K,L534I,L564I,C568A,C596A] (Human immunodeficiency virus 1, UniProt P03367, C568A/C596A/L534I/L564I/Q508K).
T4 construct: 501-599
Source text: as §1

Turning to `CCCC[C@H](NC(=O)[C@H](C)NC(=O)[C@H](CCC(=O)O)NC(=O)[C@H](Cc1ccccc1)NC[C@H](CC(C)C)NC(=O)[C@@H](NC(=O)[C@@H](N)CCCNC(=N)N)C(C)C)C(N)=O` [N-1270] (H-[N(2S-amino-4-Me-pentyl)Phe]([Val-Arg])EA[Nle]-NH2), the Ki in assay [1] amounted to 330 nM; in assay [2] it was 230 nM; in assay [3], 3.5 nM; in assay [4], 75 nM.
